Laboratory results taken from patent EP4537820A1, “COMPOUND AND COMBINATIONS COMPRISING SAID COMPOUND TO IMPROVE IMMUNE RESPONSE” (Institut Gustave-Roussy, priority 2023, dated 2025).

Assays:
[1] = system: OT-1 CD8+ T cells; test: Co-culture of OT-1 cells with treated MCA205-Glob-SL8-intron cells, T cell activation by flow cytometry; assay type: cell-based, mouse
Protocol: MCA205-Glob-SL8-intron were plated at 1×10^5 cells in 12-well plates and incubated overnight. The next day, cells were treated with different concentrations of drugs for 24 hours. After treatment, cells were harvested with trypsin, washed twice with OT-1 Media (RPMI-1640, 10% FBS, 2mM L-glutamine, 50µM of 2-mercaptoéthanol, 100 IU/mL of Penicillin G, […]), and each condition was counted with a KOVA slide and Trypan-blue. For each tested condition 2×10^5 of treatedcells were plated in a 96-wells plate. The same day, lymph nodes from an OT1 mouse (C57B1/6J TCR-transgenic CD8^+ T cells specific for Kb -OVA257-264, obtained from Charles River #642OT1) were harvested. Lymph nodes were dissociated and filtered through a 40 µm filter and red blood cells were lysed with ACK buffer. 8×10^5 OT-1 cells were added to the MCA205-Glob-SL8-intron cells (E:T ratio of 4:1) and the plate was incubated overnight at 37°C. The next day, translocation to the golgi was blocked with brefeldin A (#420601, Biolegend) for 3h before cells were stained with Zombie Aqua (#423102, Biolegend) and antibodies described in Table 2, to measure T cell activation. Samples were acquired on a Cytek Aurora (Cytek Biosciences) spectral flow cytometer and data was analysed with FlowJo (V10) software (TreeStar, Inc.). Table 2: Panel of antibodies for the study of OT-1 CD8+ T-cells activation by MCA205-Glob-SL8-intron.
In their experiments, OT-1 cells were co-incubated with MCA205 cells expressing the globin-SL8-intron construct. To assess the production of antigenic peptide substrates, they measured OT-1 cell proliferation using FACS analysis. They analyzed the expression levels of early activation markers, CD69 and CD25, which are critical for the proliferation of activated T cells. For that purpose, MCA205 cells with the globin-SL8-intron construct were exposed to varying concentrations of compound 58 for 24 hours, followed by co-incubation with OT-1 cells.
Furthermore, inventors sought to characterize the activated OT-1 cell subset induced by this treatment. To do so, they examined the expression of CD44 and CD62L (L-selectin) markers, which delineate two major subsets of OT-1 CD8+ T cells following co-culture with MCA cells treated with compound 58: effector/memory (CD44^high/CD62L^low) and central memory (CD44^high/CD62L^high) CD8+ T cell subsets.
Inventors then evaluated the effector function of OT-1 cells post-co-culture with MCA cells treated with compound 58 by examining the expression of perforin.

[2] = system: human constitutive 20S proteasome (h20S); test: Peptide degradation assay with Fluorescamine (KH-52), 20S alone; assay type: biochemical; conditions: different concentrations tested, 37°C
Protocol: Degradation of the 52 amino acid peptide KH-52: […], Boulpicante et al.) by the 20S proteasome was followed by amino-acid group generation using Fluorescamine (#F9015, Sigma-Aldrich). The peptide substrate was incubated at 100µM with 25nM 20S, with or without 160nM REGγ and with different concentration of the tested compounds or DMSO. Assays were performed in 100µL in phosphate buffer (pH 6.8) and incubated at 37°C in a water bath for 8 hours. After 4, 6 and 8 hours, 22µL of sample were retrieved and added to 88µL of phosphate buffer before being stored at - 20°C prior to revelation. For the revelation, samples were thawed and filtered in a centrifuge 20min at 4°C 1kDa filters (#OD003C34, Pall Corporation). To avoid any amino group contamination, filtered were washed in phosphate buffer before use. 20µL of filtered-sample were plated in triplicates in a black 96-wells plate (#237108, Thermo Scientific) and 10µL of fluorescamine (1mg/mL, in 100% acetone) was added to the samples. The plate was placed on agitation for 1min before the reaction was stopped by adding 200µL of water to each well. The fluorescence intensity was measured using a FluoSTAR plate reader (BMG Labtech) with excitation wavelength at 355nm and emission wavelength at 460nm.
These findings were established through both in vitro degradation assays and T cell experiments. […]

[3] = MCA cells treated 24 hours, then co-culture with OT-1 cells

rate of peptide bond hydrolysis of KH-52 [2]: no impact
SMILES: Cc1ccc(N=Nc2ccc(C)cc2NC(=O)Nc2ccccc2F)cc1 [compound 58]
frequency of CD69+ CD25+ OT-1 T cells ([1]; MCA205 cells treated 24 hours, then co-incubation with OT-1 cells, compared to untreated cells): increased frequency
frequency of CD44^high/CD62L^low effector/memory cells [1, 3]: dose-dependent increase
frequency of central memory CD44^high/CD62L^high cells [1, 3]: remained unchanged
perforin expression of OT-1 cells [1, 3]: increased perforin expression
